Assay results taken from the supplement of paper PMC10307832.

Columns and labels:
Test in all cases: relative viability (nuclei count vs DMSO), 5 days (fraction); higher = more cells survive
Bosutinib + Foretinib = compound: COc1cc(Nc2c(C#N)cnc3cc(OCCCN4CCN(C)CC4)c(OC)cc23)c(Cl)cc1Cl [Bosutinib] + COc1cc2c(Oc3ccc(NC(=O)C4(C(=O)Nc5ccc(F)cc5)CC4)cc3F)ccnc2cc1OCCCN1CCOCC1 [Foretinib] (partner 0.25 µM)
Outline: (§1)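 Cells from lung cancer lines were seeded into 1536-well plates and, one day later, dosed by pin tool. Treatments were either a single drug or a fixed dose of an anchor drug with five library-drug doses (not always all listed) in √10 steps. After 5 days, nuclei were stained in a one-step fixation (final 0.05% Triton X-100, 1% formaldehyde, 1 ug/ml Hoechst) and counted on 4× images, and relative viability is the treated-to-vehicle nuclei ratio, as the median of duplicate plates.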

Bosutinib + Linsitinib = compound: COc1cc(Nc2c(C#N)cnc3cc(OCCCN4CCN(C)CC4)c(OC)cc23)c(Cl)cc1Cl [Bosutinib] + C[C@]1(O)C[C@@H](c2nc(-c3ccc4ccc(-c5ccccc5)nc4c3)c3c(N)nccn32)C1 [Linsitinib] (partner 1 µM)
Outline: as §1

Bosutinib + Phenformin = compound: COc1cc(Nc2c(C#N)cnc3cc(OCCCN4CCN(C)CC4)c(OC)cc23)c(Cl)cc1Cl [Bosutinib] + N=C(N)NC(=N)NCCc1ccccc1 [Phenformin] (partner 250 µM)
Outline: as §1

Bosutinib + Crizotinib = compound: COc1cc(Nc2c(C#N)cnc3cc(OCCCN4CCN(C)CC4)c(OC)cc23)c(Cl)cc1Cl [Bosutinib] + C[C@@H](Oc1cc(-c2cnn(C3CCNCC3)c2)cnc1N)c1c(Cl)ccc(F)c1Cl [Crizotinib] (partner 1 µM)
Outline: as §1

Bosutinib = compound: COc1cc(Nc2c(C#N)cnc3cc(OCCCN4CCN(C)CC4)c(OC)cc23)c(Cl)cc1Cl [Bosutinib]
Outline: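 MetaXpress counted nuclei in 4× images of lung cancer cell lines that had been fixed, permeabilised and Hoechst-stained in one step. Before that, cells in 1536-well plates were kept overnight at 37 °C, pinned with five √10-spaced library-drug doses on vehicle-anchored plates, and cultured 5 days without medium change. Viability takes treated-well nuclei over vehicle-well nuclei and uses the median across plates. Plates were accepted only at control CV below 25% and at least one doubling.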

Cell Line | relative viability (Bosutinib + Foretinib; first compound 0.01 µM) | relative viability (Bosutinib + Foretinib; first compound 0.03162 µM) | relative viability (Bosutinib + Foretinib; first compound 0.1 µM) | relative viability (Bosutinib + Foretinib; first compound 1 µM) | relative viability (Bosutinib + Linsitinib; first compound 0.01 µM) | relative viability (Bosutinib + Linsitinib; first compound 0.03162 µM) | relative viability (Bosutinib + Linsitinib; first compound 0.1 µM) | relative viability (Bosutinib + Linsitinib; first compound 1 µM) | relative viability (Bosutinib + Phenformin; first compound 0.01 µM) | relative viability (Bosutinib + Phenformin; first compound 0.03162 µM) | relative viability (Bosutinib + Phenformin; first compound 0.1 µM) | relative viability (Bosutinib + Phenformin; first compound 1 µM) | relative viability (Bosutinib + Crizotinib; first compound 0.01 µM) | relative viability (Bosutinib + Crizotinib; first compound 0.03162 µM) | relative viability (Bosutinib + Crizotinib; first compound 0.1 µM) | relative viability (Bosutinib + Crizotinib; first compound 1 µM) | relative viability (Bosutinib; 0.01 µM) | relative viability (Bosutinib; 0.03162 µM) | relative viability (Bosutinib; 0.1 µM) | relative viability (Bosutinib; 1 µM)
NCI-H1915 | 1.07 | 1.1 | 1.11 | 1.11 | 1.04 | 1.1 | 1.08 | 1.14 | 0.365 | 0.365 | 0.382 | 0.348 | 0.932 | 0.89 | 0.98 | 0.956 | 0.989 | 1.09 | 1.1 | 1.01
PC-14 | 0.963 | 0.975 | 0.98 | 0.255 | 0.927 | 1.01 | 0.884 | 0.285 | 0.539 | 0.585 | 0.5 | 0.277 | 0.807 | 0.928 | 0.788 | 0.313 | 1.03 | 0.977 | 0.871 | 0.336
SK-LU-1 | 0.841 | 0.85 | 0.813 | 0.449 | 1.06 | 1.18 | 1.11 | 0.631 | 0.538 | 0.473 | 0.507 | 0.303 | 0.9 | 0.819 | 0.807 | 0.48 | 0.995 | 1.06 | 1.05 | 0.629
NCI-H1437 | 1.23 | 1.2 | 1.14 | 1.1 | 1.06 | 1.05 | 0.962 | 0.781 | 0.341 | 0.305 | 0.335 | 0.287 | 0.858 | 0.922 | 0.898 | 0.82 | 1.03 | 0.974 | 1.02 | 0.912
NCI-H1734 | 0.888 | 0.837 | 0.849 | 0.719 | 0.88 | 0.945 | 0.914 | 0.706 | 0.455 | 0.382 | 0.375 | 0.312 | 0.737 | 0.656 | 0.658 | 0.537 | 1.06 | 1.01 | 0.965 | 0.892
LK-2 | 1.1 | 1.49 | 1.19 | 0.914 | 0.671 | 0.55 | 0.523 | 0.337 | 0.711 | 0.552 | 0.382 | 0.348 | 0.258 | 0.227 | 0.248 | 0.224 | 0.942 | 0.972 | 0.929 | 0.867
HCC-15 | 1.07 | 1.05 | 1.04 | 0.874 | 0.905 | 0.837 | 0.954 | 0.803 | 0.478 | 0.466 | 0.471 | 0.389 | 0.809 | 0.846 | 0.844 | 0.771 | 1.05 | 1.03 | 1.06 | 0.926
HCC-366 | 0.884 | 0.97 | 0.971 | 0.879 | 0.708 | 0.604 | 0.457 | 0.0753 | 0.63 | 0.61 | 0.555 | 0.53 | 0.59 | 0.6 | 0.516 | 0.316 | 0.991 | 1 | 0.974 | 0.785
NCI-H650 | 1.05 | 1 | 1.09 | 1.04 | 1.17 | 0.846 | 0.985 | 1.21 | 0.447 | 0.45 | 0.472 | 0.482 | 0.791 | 0.644 | 0.73 | 0.808 | 1 | 1.06 | 1.08 | 1.11
NCI-H2347 | 0.929 | 0.878 | 0.988 | 0.885 | 1.08 | 1 | 1.01 | 0.987 | 0.323 | 0.453 | 0.54 | 0.376 | 0.835 | 0.877 | 0.914 | 0.648 | 1.03 | 1.09 | 0.992 | 1.06
LXF-289 | 0.926 | 1 | 0.979 | 0.913 | 0.948 | 0.971 | 0.946 | 1.01 | 0.508 | 0.515 | 0.521 | 0.514 | 0.829 | 0.823 | 0.79 | 0.898 | 1 | 1.01 | 1.03 | 1.01
BEN | 0.755 | 0.637 | 0.682 | 0.516 | 0.981 | 0.798 | 1.01 | 0.604 | 0.254 | 0.257 | 0.253 | 0.25 | 0.836 | 0.857 | 0.795 | 0.519 | 0.952 | 0.984 | 1.08 | 0.765
NCI-H2023 | 0.874 | 0.921 | 0.81 | 0.498 | 0.763 | 0.743 | 0.62 | 0.402 | 0.415 | 0.4 | 0.376 | 0.295 | 0.538 | 0.613 | 0.511 | 0.366 | 1.02 | 0.943 | 0.948 | 0.852
NCI-H661 | 1.07 | 0.995 | 0.968 | 0.596 | 0.678 | 0.571 | 0.57 | 0.323 | 0.281 | 0.3 | 0.287 | 0.269 | – | 1.06 | 0.989 | 0.633 | 0.97 | 1.09 | 1.06 | 0.731
NCI-H1355 | 0.956 | 0.973 | 1.01 | 0.917 | 0.824 | 0.792 | 0.872 | 0.687 | 0.517 | 0.474 | 0.448 | 0.362 | 1.07 | 1.04 | 1.12 | 0.905 | 0.999 | 1.03 | 1.05 | 0.931
